The results in this text go back to patent US8034606B2, “Acid tolerant Lactobacillus sakei probio-65 with the ability of growth suppression of pathogenic microorganisms and the anti-allergic effect” (priority 2005, dated 2011).

This test deals with Lactobacillus sakei Probio-65. Description: Antibiotic sensitivity test of the strain against fourteen antibiotics. The test is classed as cell-based. Particulars: for Diameter: antibiotic amount 2 to 250 μg depending on antibiotic, compared with Resistance (mm); for Results: antibiotic amount (μg), resistant or susceptible by diameter (mm).

Consider Gentamicin, for which the Diameter was 9 mm and the Results result is listed as “R”.

Regarding `CN(C)c1ccc(O)c2c1C[C@H]1C[C@H]3[C@H](N(C)C)C(O)=C(C(N)=O)C(=O)[C@@]3(O)C(O)=C1C2=O` [Minocyclin], the Diameter is given as 26 mm and the Results result is recorded as “S”. `CC1(C)S[C@@H]2[C@H](NC(=O)Cc3ccccc3)C(=O)N2[C@H]1C(=O)O` [Penicillin G] returned a Diameter of 20 mm.

For Neomycin, the Diameter was found to be 9 mm and the Results result is given as “R”.

Consider `Cc1noc(NS(=O)(=O)c2ccc(N)cc2)c1C` [Sulfisoxzazole], for which the Diameter worked out at 0 mm and the Results entry is “R”.
